Experimental data as given in US12329729B1, “Method of treating cancer in a subject” (IMAM MOHAMMAD IBN SAUD ISLAMIC UNIVERSITY, priority 2024, dated 2025).
Converted amounts (≈) assume the structure as drawn.

Tests used:
Format in all cases: cell-based
A549 = assay: IC50 towards A549 cancer cell line; details: Homo sapiens
PC3 = assay: IC50 towards PC3 cancer cell line; details: Homo sapiens, PC-3
FaDu = assay: IC50 towards FaDu cancer cell line; details: Homo sapiens
MDA-MB-468 = assay: IC50 towards MDA-MB-468 cancer cell line; details: Homo sapiens
HeLa = assay: IC50 towards HeLa cancer cell line; details: Homo sapiens
p53 = assay: Upregulation of pro-apoptotic protein p53; details: compared to the control (untreated) cells
BAX = assay: Upregulation of pro-apoptotic protein BAX; details: compared to the control (untreated) cells
Caspase 3 = assay: Upregulation of pro-apoptotic protein Caspase 3; details: compared to the control (untreated) cells
Caspase 6 = assay: Upregulation of pro-apoptotic protein Caspase 6; details: compared to the control (untreated) cells
Caspase 8 = assay: Upregulation of pro-apoptotic protein Caspase 8; details: compared to the control (untreated) cells
Caspase 9 = assay: Upregulation of pro-apoptotic protein Caspase 9; details: compared to the control (untreated) cells
BCL-2 = assay: Downregulation of anti-apoptotic protein BCL-2; details: compared to the control (untreated) cells
MMP2 = assay: Downregulation of; details: compared to the control (untreated) cells
MMP9 = assay: Downregulation of; details: compared to the control (untreated) cells
COX-2 = assay: Downregulation of pro-inflammatory marker COX-2; details: compared to the control (untreated) cells
IL-6 = assay: Downregulation of; details: compared to the control (untreated) cells
IL-1β = assay: Downregulation of pro-inflammatory marker IL-1β; details: compared to the control (untreated) cells

Row | SMILES | IC50 (A549) [µg/mL] | IC50 (PC3) [µg/mL] | IC50 (FaDu) [µg/mL] | IC50 (MDA-MB-468) [µg/mL] | IC50 (HeLa) [µg/mL] | upregulation of p53 (p53) [fold changes] | upregulation of BAX (BAX) [fold changes] | upregulation of Caspase 3 (Caspase 3) [fold changes] | upregulation of Caspase 6 (Caspase 6) [fold changes] | upregulation of Caspase 8 (Caspase 8) [fold changes] | upregulation of Caspase 9 (Caspase 9) [fold changes] | downregulation of BCL-2 (BCL-2) [fold changes] | downregulation of MMP2 (MMP2) [fold changes] | downregulation of MMP9 (MMP9) [fold changes] | downregulation of COX-2 (COX-2) [fold changes] | downregulation of IL-6 (IL-6) [fold changes] | downregulation of IL-1β (IL-1β) [fold changes]
1 | CCOc1ccc(Oc2ccc(/C=N/c3ccc([Se][Se]c4ccc(/N=C/c5ccc(Oc6ccc(OCC)cc6)cc5)cc4)cc3)cc2)cc1 [YS9, N,N′-(Diselanediylbis(4,1-phenylene))bis(1-(4-(4-ethoxyphenoxy)phenyl)methanimine)] | 4.4 (≈ 5.56 µM) | 12 (≈ 15.1 µM) | 4.73 (≈ 5.98 µM) | 6 (≈ 7.59 µM) | 4 (≈ 5.06 µM) | 3.50 | 1.95 | 5.82 | 10.37 | 3.16 | 2.41 | 0.35 | 0.31 | 0.48 | 0.37 | 0.48 | 0.46
2 | COc1cccc2c1C(=O)c1c(O)c3c(c(O)c1C2=O)C[C@@](O)(C(=O)CO)C[C@@H]3O[C@H]1C[C@H](N)[C@H](O)[C@H](C)O1 [doxorubicin, reference compound] | – | 5.83 (≈ 10.7 µM) | 13.1 (≈ 24.1 µM) | – | – | – | – | – | – | – | – | – | – | – | – | – | –
